According to US9309275B2, “3′-deoxy nucleosides for the treatment of HCV” (Idenix Pharmaceuticals, Inc., priority 2013, dated 2016):
Read-outs that look alike come from different tables or passages of the source.

Legend:
HCV genotype 1b replicon = test: HCV replicon assay (Zluc luciferase reporter); assay type: cell-based
Procedure: Huh-7-derived cell line (Zluc) that harbors an HCV genotype 1b replicon and a luciferase reporter gene was grown in Dulbecco's Modified Eagle Medium (DMEM) supplemented with 10% fetal bovine serum, 2 mM GlutaMAX, 1% MEM nonessential amino acids, 100 IU/mL penicillin, 100 μg/mL streptomycin, and 0.5 mg/mL Geneticin® (G418). For dose response testing the cells were seeded in 96-well plates at 7.5×10^3 cells per well in a volume of 50 μL, and incubated at 37° C./5% CO2. Drug solutions were made up freshly in Huh-7 media as 2× stocks. Ten additional 5-fold dilutions were prepared from these stocks in DMEM without G418. At least three hours after Zluc cells were seeded, drug treatment was initiated by adding 50 μL of drug dilutions to the plates in duplicate. Final concentrations of drug ranged from 100 μM to […]. Cells were then incubated at 37° C./5% CO2. Alternatively, compounds were tested at two concentrations (1 μM and 10 μM). […] For this, media was removed from the plates via gentle tapping. Fifty microliters of ONE-glo luciferase assay reagent was added to each well. The plates were shaken gently for 3 min at room temperature and luminescence was measured on a Victor^3 V 1420 multilabel counter (Perkin Elmer) with a 1 second read time using a 700 nm cut-off filter. The EC50 values were calculated from dose response curves from the resulting best-fit equations determined by Microsoft Excel and XLfit 4.1 software. When screening at two fixed concentrations, the results were expressed as % inhibition at 1 μM and 10 μM.

[1] = Cytotoxicity evaluation, CellTiter-Blue Cell Viability Assay; assay type: cell-based; settings: human
Procedure: (§1) For cytotoxicity evaluation, Zluc cells were treated with test compound as described herein, and cell viability was monitored using the CellTiter-Blue Cell Viability Assay (Promega) by adding 20 μL of the assay solution to each well. The plates were then incubated at 37° C./5% CO2 for at least 3 hours.

Zluc cells = test: as above; assay type: cell-based; settings: read-out: HCV Replicon CC50
Procedure: as §1

[2] = target: T1, wild-type HCV genotype 1b NS5B protein (Hepatitis C virus genotype 1b, UniProt Q9WMX2); test: HCV polymerase enzyme assay, wild-type; assay type: biochemical
T1 construct: HCV genotype 1b NS5B protein were used to generate recombinant HCV polymerases (with a deletion of the 21 carboxy terminal amino acids); made in house
Excerpt: (§2) Test compounds in the form of nucleoside triphosphates were examined for inhibitory activity against purified HCV polymerase in a standard assay. Bacterial expression constructs encoding the approximately 65 kDa HCV genotype 1b NS5B protein were used to generate recombinant HCV polymerases (with a deletion of the 21 carboxy terminal amino acids). Both the wild-type genotype 1b protein and protein containing the S282T mutation were expressed and purified for use in the enzymatic activity assay.
(§3) The enzymatic activity assay measured the inhibitory effect of increasing concentrations of test compound on the incorporation of α-[^33P]-labeled nucleotide into trichloroacetic acid-precipitable material. Recombinant polymerase and synthetic RNA template were combined in reaction buffer containing ribonucleoside triphosphates, α-[^33P]-labeled nucleotide and eight concentrations of test compound in three-fold dilutions. […]
(§4) Reactions were terminated by the addition of ice-cold trichloroacetic acid and sodium pyrophosphate to promote precipitation of newly-synthesized ribonucleic acid. Precipitable material from the reactions was collected by filtration onto 96-well filter plates, washed extensively with water, and quantified by liquid scintillation.
(§5) The inhibitory activity of test compounds was determined by fitting results to dose-response curves using XLfit software.

[3] = target: T2, HCV genotype 1b NS5B protein containing the S282T mutation (Hepatitis C virus genotype 1b, UniProt Q9WMX2, S2701T); test: HCV polymerase enzyme assay, S282T mutant; assay type: biochemical; settings: purified recombinant genotype 1b NS5B with S282T mutation; compounds tested as nucleoside triphosphates
T2 construct: HCV genotype 1b NS5B protein were used to generate recombinant HCV polymerases (with a deletion of the 21 carboxy terminal amino acids); made in house
Excerpt: as §2, §3, §4, §5

[4] = read-out: HCV Replicon EC50, Huh-7-derived Zluc cells, 72 hours of incubation
[5] = Zluc cells, read-out: HCV Replicon CC50
[6] = Hepatitis C virus, 72 h, Huh-7-derived Zluc cells, 72 hours of incubation, read-out: HCV Replicon EC50
[7] = Huh-7-derived Zluc cells, 72 hours of incubation, read-out: HCV Replicon EC50
[8] = Zluc cells (HCV replicon cells)

## CC(C)OC(=O)[C@H](C)NP(=O)(OC[C@@H]1C[C@@](C)(F)[C@H](n2cnc3c(=O)[nH]c(N)nc32)O1)Oc1ccccc1 (single isomer, unassigned) [1b Diastereomer 1]
HCV genotype 1b replicon; [4]
  EC50: 1 to 10 µM
[1]; [5]
  CC50 at 72 h: > 50 µM

## CCOc1nc(N)nc2c1ncn2[C@@H]1O[C@H](COP(=O)(N[C@H](C)C(=O)OC(C)C)Oc2ccccc2)C[C@@]1(C)F (single isomer, unassigned) [2a Diastereomer 1]
HCV genotype 1b replicon; [6]
  EC50: > 10 µM
[1]; [5]
  CC50 at 72 h: > 50 µM

## CC(C)OC(=O)[C@H](C)NP(=O)(OC[C@@H]1C[C@@](C)(F)[C@H](n2cnc3c(=O)[nH]c(N)nc32)O1)Oc1ccccc1 (single isomer, unassigned) [lb Diastereomer 2]
HCV genotype 1b replicon; [4]
  EC50: > 10 µM
Zluc cells
  CC50: > 50 µM

## CC(C)OC(=O)[C@H](C)NP(=O)(OC[C@@H]1C[C@@](C)(F)[C@H](n2ccc(=O)[nH]c2=O)O1)Oc1ccccc1 (single isomer, unassigned) [4b Diastereomer 1]
HCV genotype 1b replicon; [7]
  EC50: 0.25 to 1 µM
[1]; [5]
  CC50 at 72 h: > 50 µM

## CCOc1nc(N)nc2c1ncn2[C@@H]1O[C@H](COP(=O)(N[C@@H](C)C(=O)OC(C)C)Oc2ccccc2)C[C@@]1(C)F (single isomer, unassigned) [2b Diastereomer 1]
HCV genotype 1b replicon; [7]
  EC50: > 10 µM
[1]; [5]
  CC50 at 72 h: > 50 µM

## C[C@@]1(F)C[C@@H](COP(=O)(O)OP(=O)(O)OP(=O)(O)O)O[C@H]1n1cnc2c(=O)[nH]c(N)nc21 [Compound 101]
[2]
  IC50: < 0.25 µM
[3]
  IC50: 1 to 10 µM

## CCOc1nc(N)nc2c1ncn2[C@@H]1O[C@H](COP(=O)(N[C@@H](C)C(=O)OC(C)C)Oc2ccccc2)C[C@@]1(C)F (single isomer, unassigned) [2b Diastereomer 2]
HCV genotype 1b replicon; [7]
  EC50: 1 to 10 µM
Zluc cells
  CC50: > 50 µM

## C[C@@]1(F)C[C@@H](CO)O[C@H]1n1ccc(=O)[nH]c1=O [Compound 202]
HCV genotype 1b replicon; [6]
  EC50: > 10 µM
[1]; [8]
  CC50 at 72 h: > 50 µM

## C[C@@]1(F)C[C@@H](COP(=O)(O)OP(=O)(O)OP(=O)(O)O)O[C@H]1n1ccc(=O)[nH]c1=O [Compound 102]
[2]
  IC50: 1 to 10 µM
[3]
  IC50: > 10 µM

## C[C@@]1(F)C[C@@H](CO)O[C@H]1n1cnc2c(=O)[nH]c(N)nc21 [Compound 201]
HCV genotype 1b replicon; [6]
  EC50: > 10 µM
[1]; [8]
  CC50 at 72 h: > 50 µM

## CC(C)OC(=O)[C@H](C)NP(=O)(OC[C@@H]1C[C@@](C)(F)[C@H](n2ccc(=O)[nH]c2=O)O1)Oc1ccccc1 (single isomer, unassigned) [4b Diastereomer 2]
HCV genotype 1b replicon; [7]
  EC50: 1 to 10 µM
Zluc cells
  CC50: > 50 µM

## CC(C)OC(=O)[C@H](C)NP(=O)(OC[C@@H]1C[C@@](C)(F)[C@H](n2ccc(N)nc2=O)O1)Oc1ccccc1 (single isomer, unassigned) [3b Diastereomer 1]
HCV genotype 1b replicon; [6]
  EC50: > 10 µM
[1]; [5]
  CC50 at 72 h: > 50 µM
